# Source: ChEMBL document CHEMBL1201862, “PubChem BioAssay data set” (2004)
# The source made the active and inactive calls.
# Columns and labels:
# [1] = test system: H4; assay: Luminescence Cell-Based Dose Response HTS to Identify Activators of 5'UTR Stem-Loop Driven Prion Protein mRNA Translation in H4 Neuroglioblastoma Cells. [Related pubchem assays: 1829 (Project Summary), 1814 (Primary HTS)]; type: functional; conditions: Homo sapiens
# [2] = Luminescence Cell-Based Dose Response HTS to Identify Activators of Luciferase Translation or Activity in H4 […] Cells. [Related pubchem assays: 1829 (Project Summary), 1814 (Primary HTS)]; type: functional
# [3] = Luminescence Cell-Based Dose Confirmation HTS to Identify Activators of 5'UTR Stem-Loop Driven Alpha-Synuclein mRNA Translation in H4 Neuroglioblastoma Cells. [Related pubchem assays: 1829 (Project Summary), 1814 (Primary HTS)]; type: functional
# [4] = test system: Vero; assay: cells; type: functional; conditions: Chlorocebus sabaeus
# [5] = target: T1, Rac GTPase-activating protein 1 (Homo sapiens, UniProt Q9H0H5); assay: blockers of MgcRacGAP-driven Rac1 GTP hydrolysis – biochemical, ADP Hunter fluorescence, primary and confirmatory, confirmation (AID 624330); type: functional
# T1 sequence (Q9H0H5 whole entry): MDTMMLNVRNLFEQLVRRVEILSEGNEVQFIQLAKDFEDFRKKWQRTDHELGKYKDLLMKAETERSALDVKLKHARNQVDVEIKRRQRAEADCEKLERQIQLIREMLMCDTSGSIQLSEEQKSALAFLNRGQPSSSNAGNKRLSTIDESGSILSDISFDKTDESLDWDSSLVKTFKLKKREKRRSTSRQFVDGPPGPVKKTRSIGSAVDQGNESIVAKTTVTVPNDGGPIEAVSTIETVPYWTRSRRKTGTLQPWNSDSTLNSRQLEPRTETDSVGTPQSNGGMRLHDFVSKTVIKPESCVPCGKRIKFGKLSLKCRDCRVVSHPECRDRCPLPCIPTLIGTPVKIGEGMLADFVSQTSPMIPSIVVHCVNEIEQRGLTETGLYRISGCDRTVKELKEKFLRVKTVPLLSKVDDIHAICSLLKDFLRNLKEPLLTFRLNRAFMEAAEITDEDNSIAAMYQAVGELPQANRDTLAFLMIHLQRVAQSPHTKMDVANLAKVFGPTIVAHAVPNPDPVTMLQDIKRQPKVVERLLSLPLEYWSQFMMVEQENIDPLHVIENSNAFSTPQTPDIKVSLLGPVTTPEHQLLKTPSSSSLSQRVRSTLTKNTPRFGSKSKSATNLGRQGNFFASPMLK
# [6] = viability loss in HeLa cells – cytotoxicity control for MgcRacGAP inhibitor project, dose response (AID 624300); type: functional
# [7] = NIH3T3 cell viability loss – ATP luminescence, mouse fibroblasts, counter-screen, dose response (AID 2010); type: functional, cell-based;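 further: cells exposed to compound for about 90 hours before reading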
# [8] = target: T2, Microphthalmia-associated transcription factor (Homo sapiens, UniProt O75030); assay: reducers of TRPM1 reporter luminescence, concentration series – cell-based, SK-MEL-5, cherry-picked, set 3, MITF inhibitor project, dose response (AID 493073); type: functional;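 further: SK-MEL-5 melanoma cells with luciferase driven by the MITF target TRPM1 promoter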
# T2 sequence (O75030 whole entry): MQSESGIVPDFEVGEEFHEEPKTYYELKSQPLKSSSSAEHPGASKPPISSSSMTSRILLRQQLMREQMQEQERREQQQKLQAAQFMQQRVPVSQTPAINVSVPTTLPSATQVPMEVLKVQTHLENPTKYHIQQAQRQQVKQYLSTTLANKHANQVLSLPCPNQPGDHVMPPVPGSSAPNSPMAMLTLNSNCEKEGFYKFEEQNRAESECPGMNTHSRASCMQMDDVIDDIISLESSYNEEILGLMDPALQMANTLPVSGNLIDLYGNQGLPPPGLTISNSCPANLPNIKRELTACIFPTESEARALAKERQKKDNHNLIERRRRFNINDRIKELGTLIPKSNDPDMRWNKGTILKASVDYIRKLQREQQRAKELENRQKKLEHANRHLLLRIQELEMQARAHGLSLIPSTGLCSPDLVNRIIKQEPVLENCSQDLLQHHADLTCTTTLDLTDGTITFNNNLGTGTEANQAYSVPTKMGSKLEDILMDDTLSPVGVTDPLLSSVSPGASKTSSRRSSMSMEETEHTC
# [9] = Trypanosoma cruzi growth suppression in host cells – NIH3T3 host cells, beta-gal luminescence, confirmation (AID 2044); type: functional, cell-based;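 further: intracellular parasites grown in NIH/3T3 mouse fibroblasts as host cells; luminescent beta-galactosidase reporter signal from transgenic T. cruzi replicating inside host cells; inhibitors lower the luminescence signal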
# [10] = test system: H9c2; assay: cells; type: functional, cell-based; conditions: Rattus norvegicus, H9c2, Myocardium;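 further: confirmatory concentration-response retest of ultra-high-throughput screening hits for modulation of myocardial damage; cell death induced by hydrogen peroxide oxidative stress; compound pretreatment for 60 min then peroxide exposure for 2 h; potency is for protecting the cells against peroxide damage rather than for killing them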
# [11] = target: T3, Carboxy-terminal domain RNA polymerase II polypeptide A small phosphatase 1 (Homo sapiens, UniProt Q9GZU7); assay: CTDSP1 inhibitors, concentration-response, biochemical, absorbance readout, ultra-high-throughput screen actives (AID 540297); type: functional
# T3 sequence (Q9GZU7 whole entry): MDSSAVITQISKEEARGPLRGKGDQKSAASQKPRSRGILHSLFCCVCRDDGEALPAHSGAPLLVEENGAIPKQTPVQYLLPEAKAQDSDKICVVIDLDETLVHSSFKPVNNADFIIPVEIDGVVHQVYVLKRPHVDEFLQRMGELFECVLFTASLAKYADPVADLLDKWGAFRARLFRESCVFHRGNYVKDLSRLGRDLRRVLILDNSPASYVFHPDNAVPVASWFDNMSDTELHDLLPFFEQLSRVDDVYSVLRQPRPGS
# [12] = target: Glyceraldehyde-3-phosphate dehydrogenase (Homo sapiens, UniProt P04406)
# [13] = Luminescence Cell-Based Dose Retest to Confirm Inhibitors of Cancer Stem Cells. [Related pubchem assays (depositor defined):AID2717, AID2721]; type: functional; conditions: Homo sapiens
# [14] = HEK-293T viability loss after treatment – luminescence, T-cell screen hits, cytotoxicity control for TCR NF-kB inhibitor project, dose response (AID 489026); type: functional, cell-based;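 further: cells exposed to compound about 14 hours before the viability readout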
# [15] = non-specific 3'UTR reporter inhibition in Clone20-Shn3RL – cell-based, Renilla luciferase, cherry-picked, counter-screen for Shn3 inhibitor project, dose response (AID 624133); type: functional
# [16] = reduction of Shn3 3'UTR-driven luciferase in osteoblasts – cell-based, Clone20 osteoblasts, firefly luciferase, cherry-picked, dose response (AID 624132); type: functional;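 further: firefly luciferase luminescence from reporter carrying the Shn3 3'UTR in osteoblasts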
# [17] = loss of viability in HepG2 cells – cell-based, CellTiter-Glo, cherry-picked, cytotoxicity control for Shn3 inhibitor project, dose response (AID 624134); type: functional
# [18] = target: Cytochrome P450 2C9 (Homo sapiens, UniProt P11712)
# [19] = Luminescence Cell-Based Dose Response HTS to Identify Inhibitors of 5'UTR Stem-Loop Driven Prion Protein mRNA Translation in H4 Neuroglioblastoma Cells. [Related pubchem assays: 1827 (Project Summary), 1813 (Primary HTS)]; type: functional
# [20] = luciferase reporter signal suppression in cells – H4 neuroglioma cells, luminescence, dose response (AID 1990); type: functional, cell-based
# [21] = alpha-synuclein stem-loop luciferase translation blockers – H4 neuroglioma cells, luminescence, confirmation (AID 1988); type: functional, cell-based
# [22] = cells; type: functional
# [23] = Vero E6 cell cytotoxicity, dose response, cytotoxicity control for non-replicating M. tuberculosis project, secondary assay (AID 492998); type: functional, VeroE6; conditions: Vero C1008
# [24] = target: T4, Heat shock factor protein 1 (Mus musculus, UniProt P38532); assay: decrease of HSF1-responsive luciferase luminescence – cell-based, NIH3T3, dose retest, confirmation (AID 2382); type: functional;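 further: NIH3T3 fibroblasts with HSF1-driven luciferase reporter stressed by proteasome inhibitor MG132; luminescence from HSF1-driven luciferase expression after 8 hours of MG132 stress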
# T4 sequence (P38532 whole entry): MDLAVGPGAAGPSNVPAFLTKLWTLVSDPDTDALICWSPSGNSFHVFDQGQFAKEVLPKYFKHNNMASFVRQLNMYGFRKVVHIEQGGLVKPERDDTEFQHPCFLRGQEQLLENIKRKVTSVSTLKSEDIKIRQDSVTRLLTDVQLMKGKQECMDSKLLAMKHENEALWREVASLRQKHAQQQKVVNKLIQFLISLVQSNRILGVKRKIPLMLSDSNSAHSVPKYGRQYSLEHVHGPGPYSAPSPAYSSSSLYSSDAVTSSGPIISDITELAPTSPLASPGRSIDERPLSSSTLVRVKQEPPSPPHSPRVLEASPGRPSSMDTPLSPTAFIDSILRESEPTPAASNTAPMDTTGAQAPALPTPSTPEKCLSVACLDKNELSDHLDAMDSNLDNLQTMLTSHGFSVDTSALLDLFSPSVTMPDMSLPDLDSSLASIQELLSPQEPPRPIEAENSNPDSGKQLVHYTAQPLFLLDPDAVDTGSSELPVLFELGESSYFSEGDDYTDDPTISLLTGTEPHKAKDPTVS
# [25] = P. falciparum Dd2 growth inhibitors, dose response, SYBR Green, cherry-picked samples (AID 1159567); type: functional, cell-based
# Sequence of Glyceraldehyde-3-phosphate dehydrogenase (P04406 whole entry): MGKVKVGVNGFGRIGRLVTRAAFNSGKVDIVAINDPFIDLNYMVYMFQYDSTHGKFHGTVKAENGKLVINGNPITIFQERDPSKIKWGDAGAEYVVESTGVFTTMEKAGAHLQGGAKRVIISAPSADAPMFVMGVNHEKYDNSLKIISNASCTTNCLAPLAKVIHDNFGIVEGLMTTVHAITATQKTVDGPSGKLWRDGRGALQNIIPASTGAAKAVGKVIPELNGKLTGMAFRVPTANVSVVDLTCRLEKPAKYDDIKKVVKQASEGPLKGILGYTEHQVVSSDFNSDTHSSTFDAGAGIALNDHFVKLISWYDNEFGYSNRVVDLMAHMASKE
# Sequence of Cytochrome P450 2C9 (P11712 whole entry): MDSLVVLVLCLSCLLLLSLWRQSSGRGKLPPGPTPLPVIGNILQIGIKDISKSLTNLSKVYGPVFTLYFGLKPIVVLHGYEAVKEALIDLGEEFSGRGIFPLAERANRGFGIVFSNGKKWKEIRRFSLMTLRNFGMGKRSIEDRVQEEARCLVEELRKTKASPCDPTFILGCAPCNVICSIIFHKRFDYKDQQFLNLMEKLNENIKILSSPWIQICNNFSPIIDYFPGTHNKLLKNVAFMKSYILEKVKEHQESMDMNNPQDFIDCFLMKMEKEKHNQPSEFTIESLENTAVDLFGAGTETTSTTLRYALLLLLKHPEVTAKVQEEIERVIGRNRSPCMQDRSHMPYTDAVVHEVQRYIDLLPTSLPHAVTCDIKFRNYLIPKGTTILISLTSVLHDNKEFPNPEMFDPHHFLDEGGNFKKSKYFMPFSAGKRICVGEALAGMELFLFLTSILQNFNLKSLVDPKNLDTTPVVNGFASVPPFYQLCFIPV
compound,measurement,setting,value
O=C(CSc1ccc(-c2ccccc2)nn1)Nc1ccc2c(c1)OCCO2,EC50,[1],> 120 µM (not active)
same,EC50,[2],13.1 µM (active)
same,EC50,[3],7.15 µM (active)
COc1ccc(-n2cccc2/C=C/[N+](=O)[O-])cc1,CC50,[4],16 µM (active)
same,IC50,[5],44 µM (active)
same,CC50,[6],42.3 µM (active)
O=C(Nc1ccc(N2CCN(C(=O)c3ccc(Cl)cc3)CC2)cc1)c1ccc([N+](=O)[O-])o1,EC50,[7],32.8 µM (active)
same,AC50,[8],7.32 µM (active)
same,EC50,[9],1.81 µM (active)
O=C(CCc1nc(O)c2ccccc2n1)N1CCN(S(=O)(=O)c2cccc([N+](=O)[O-])c2)CC1,IC50,[10],> 79 µM (inactive)
Cc1ccc(N2C(=O)c3[nH]nc(C)c3C2c2ccco2)cc1 (configuration not stated),EC50,[1],17.9 µM (inconclusive)
same,EC50,[2],48.5 µM (active)
same,EC50,[3],> 120 µM (not active)
C=CCNC(=O)c1ccc(OC2CCN(S(=O)(=O)N(C)C)CC2)cc1,EC50,[1],25.6 µM (active)
same,EC50,[2],15.2 µM (active)
same,EC50,[3],16.9 µM (active)
CCOC(=O)c1ccc2c(c1)[n+](CC)c(/C=C/N(C)c1ccccc1)n2CC,AC50,[8],3.24 µM (active)
same,IC50,[11],4.04 µM (active)
COc1cccc(CC(CC(=O)O)C(=O)O)c1 (configuration not stated),IC50,[12],> 100 µM (not active)
COc1cc2c(cc1N=C(S)Nc1cccc(C(F)(F)F)c1)oc1ccccc12,IC50,[5],225 µM (active)
same,CC50,[6],100 µM (active)
Cc1cc(C)c(C)c(S(=O)(=O)N2CCN(C(=O)CCc3nc(O)c4ccccc4n3)CC2)c1C,IC50,[10],> 79 µM (inactive)
Cc1cc2c(cc1C)C(c1ccccc1OC(C)C)CC(=O)N2 (configuration not stated),AC50,[13],0.796 µM (active)
same,IC50,[14],62.2 µM (inactive)
CC(C)N1C(=O)CC(Nc2ccc(N3CCOCC3)cc2)C1=O (configuration not stated),EC50,[1],> 120 µM (not active)
same,EC50,[2],29.1 µM (active)
same,EC50,[3],> 120 µM (not active)
CC(=O)Nc1nnc(SCc2cccc3ccccc23)[nH]1,IC50,[12],> 100 µM (not active)
C[C+](C)[N-]Oc1cc(NC(=O)CCl)cc([N+](=O)[O-])c1,AC50,[8],6.18 µM (active)
CCOC(=O)N1CCC(NC(=O)C2CCCN(Cc3nc(-c4cccc(C)c4)oc3C)C2)CC1 (configuration not stated),AC50,[15],7.52 µM (active)
same,AC50,[8],34.9 µM (active)
same,AC50,[16],3.06 µM (active)
same,AC50,[17],55.6 µM (active)
COc1ccc(C)c(Cn2c(-c3nonc3N)nc3ccccc32)c1,IC50,[14],> 80 µM (inactive)
Cn1c(-c2ccc3c(c2)OCO3)cnc1NCc1ccccc1,EC50,[1],39.9 µM (active)
same,EC50,[2],6.69 µM (active)
same,EC50,[3],14.6 µM (active)
same,AC50,[18],31.6 µM (inconclusive)
CCOc1cc(/C=C(\C#N)c2[nH]nc(N)c2C#N)ccc1O,EC50,[19],14.6 µM (active)
same,CC50,[6],100 µM (active)
same,EC50,[20],11.9 µM (active)
same,EC50,[21],> 120 µM (not active)
O=C(NCc1cccs1)C1CCN(c2ccc(S(=O)(=O)N3CCOCC3)cc2Cl)CC1,IC50,[14],> 80 µM (inactive)
COc1cc(/C=C2/SC(=S)NC2=O)cc(Cl)c1OCc1ccc(Cl)cc1Cl,IC50,[12],> 100 µM (not active)
Cc1cc(C)n2[nH]c(=O)c(N=Nc3cccc(Cl)c3)c2n1,IC50,[22],17.7 µM (active)
same,CC50,[23],> 20 µM (active)
Nc1ccccc1C(=O)NNc1c2ccccc2nc2ccccc12,IC50,[5],98.3 µM (active)
same,CC50,[6],100 µM (active)
Cc1cccc2cc(/C=C3\N=C(c4ccccc4)OC3=O)c(N(C)C)nc12,IC50,[12],> 100 µM (not active)
c1ccc(-c2nn3c(-c4ccco4)nnc3s2)nc1,IC50,[10],12.8 µM (active)
CCOc1ccccc1NC(=O)c1oc2ccccc2c1NC(=O)C1CCCO1 (configuration not stated),IC50,[10],> 79 µM (inactive)
Cn1c(=O)c2nc(NN=Cc3ccc(Br)cc3)[nH]c2n(C)c1=O,IC50,[10],> 79 µM (inactive)
COc1ccc(-c2csc(/C(C#N)=C(\O)CSc3nccn3C)n2)cc1OC,IC50,[10],> 79 µM (inactive)
same,EC50,[24],> 195 µM (not active)
N#Cc1ccc(-c2ccc3c(c2)[C@@H]2[C@@H](CCN2C(=O)C2CCC2)[C@@H](CO)N3)cc1,AC50,[25],9.93 µM (active)
Cc1ccc(S(=O)(=O)N(C)C[C@H]2Oc3ccc(NC(=O)c4ccncc4)cc3C(=O)N([C@@H](C)CO)C[C@@H]2C)cc1,AC50,[25],8.41 µM (active)
COc1cc(C)c(Cl)cc1S(=O)(=O)Nc1cccnc1,IC50,[12],> 10 µM (inconclusive)
